Assay results: PMC6161602, “Synthesis and characterisation of (Z)-styrylbenzene derivatives as potential selective anticancer agents” (Journal of Enzyme Inhibition and Medicinal Chemistry, 2018)
Read-outs that look alike come from different tables or passages of the source.

Key:
[1] = tested on: MGC-803 cells; experiment: MTT cell growth inhibition assay, MGC-803; assay type: cell-based, human; conditions: for IC50: MTT, 48 h incubation, MGC-803; for SI IC50 (L-02/MGC-803): selectivity index, IC50 (L-02)/IC50 (MGC-803)
Excerpt: (§1) All human cell lines were used in this study. MGC-803 late-stage differentiation gastric cancer cell, A549 lung cancer cell, HepG2 hepatoma cell, AGS gastric cancer cell, BEL-7402 liver cancer cell, HCT-116 colorectal cancer cell, HeLa cervical cancer cell, SGC-7901 early differentiation gastric cancer cell, L-02 normal liver cell, MCF-7 breast cancer cell, and MCF-10A normal breast cell were initially purchased from American Type Culture Collection (ATCC, Manassas, VA, USA). RPMI-1640 media, Dulbecco’s modified Eagle’s medium (DMEM), and foetal bovine serum (FBS) were provided from Gibco Company (Grand Island, NY, USA). The cells were maintained in DMEM or RPMI-1640, supplemented with 10% FBS, 100 IU/mL penicillin and […] (Grand Island, NY, USA), and at 37 °C in a humidified atmosphere containing 5% CO2.
(§2) Cells were plated in 96-well plates at a density of 30–40% to ensure exponential growth throughout the experimental period, and then allowed to adhere for 1 day[21]. Next, the cells were treated with four serial concentrations (1, 10, 50, and 100 µM) of each compound. Taxol, CA-4, and CA-4P (phosphorylated form of CA-4) were used as positive controls. After 48 h incubation, MTT solution was added to each well at a final concentration of 2 mg/mL, and incubated for an additional 4 h. Next, the MTT solution was removed and 150 µL of dimethyl sulphoxide (DMSO)/well was added (Sigma-Aldrich, St Louis, MO, USA). The plates were shaken vigorously at RT to ensure complete solubilisation, and absorption at 492 nm was determined.
(§3) According to standard protocol, preliminary in vitro anti-proliferative activities of the synthesised compounds were evaluated by MTT assay, using nine human cancer cell lines (MGC-803, A549, HepG2, AGS, BEL-7402, HCT116, HeLa, SGC-7901, and MCF-7) and two normal human cell lines (L-02 and MCF-10A), and compared with those of CA-4, CA-4P, and taxol.

[2] = tested on: A549 lung cancer cell; experiment: MTT cell growth inhibition assay, A549; assay type: cell-based, human; conditions: for IC50: MTT, 48 h incubation, A549
Excerpt: as §1, §2, §3

[3] = tested on: HepG2 hepatoma cell; experiment: MTT cell growth inhibition assay, HepG-2; assay type: cell-based, human; conditions: MTT, 48 h incubation, HepG-2
Excerpt: as §1, §2, §3

[4] = tested on: AGS cells; experiment: MTT cell growth inhibition assay, AGS; assay type: cell-based, human; conditions: for IC50: MTT, 48 h incubation, AGS; for SI IC50 (L-02/AGS): selectivity index, IC50 (L-02)/IC50 (AGS)
Excerpt: as §1, §2, §3

[5] = tested on: BEL-7402 cells; experiment: MTT cell growth inhibition assay, BEL-7402; assay type: cell-based, human; conditions: for IC50: MTT, 48 h incubation, Bel-7402; for SI IC50 (L-02/BEL-7402): selectivity index, IC50 (L-02)/IC50 (BEL-7402)
Excerpt: as §1, §2, §3

[6] = tested on: HCT116 cells; experiment: MTT cell growth inhibition assay, HCT116; assay type: cell-based, human; conditions: for IC50: MTT, 48 h incubation, HCT116
Excerpt: as §1, §2, §3

[7] = tested on: L-02 normal liver cell; experiment: MTT cell growth inhibition assay, L-02 (normal); assay type: cell-based, human; conditions: 48 h incubation, L-02 normal cells
Excerpt: as §1, §2, §3

[8] = tested on: HeLa cervical cancer cell; experiment: MTT cell growth inhibition assay, HeLa; assay type: cell-based, human; conditions: 48 h incubation
Excerpt: as §1, §2, §3

[9] = tested on: SGC-7901 early differentiation gastric cancer cell; experiment: MTT cell growth inhibition assay, SGC-7901; assay type: cell-based, human; conditions: 48 h incubation
Excerpt: as §1, §2, §3

[10] = tested on: MCF-10A normal breast cell; experiment: MTT cell growth inhibition assay, MCF-10A (normal); assay type: cell-based, human; conditions: 48 h incubation, MCF-10A normal cells
Excerpt: as §1, §2, §3

[11] = tested on: MCF-7 breast cancer cell; experiment: MTT cell growth inhibition assay, MCF-7; assay type: cell-based, human; conditions: for IC50: MTT, 48 h incubation, MCF-7
Excerpt: as §1, §2, §3

[12] = selectivity index, IC50 (L-02)/IC50 (HCT116)
[13] = selectivity index, IC50 (MCF-10A)/IC50 (MCF-7)

Row | IC50 ([1]; Homo sapiens, MGC-803, 48 h) | IC50 ([2]; Homo sapiens) | IC50 ([3]; Homo sapiens, HepG2) | IC50 ([4]; Homo sapiens) | IC50 ([5]; Homo sapiens) | IC50 ([6]; Homo sapiens, HCT-116) | IC50 ([8]; Homo sapiens) | IC50 ([9]; Homo sapiens) | IC50 ([11]; Homo sapiens, MCF7) | IC50 [1] | melting point | Compound | IC50 ([7]; Homo sapiens) | IC50 ([10]; Homo sapiens) | SI IC50 (L-02/HCT116) [6, 12] | SI IC50 (MCF-10A/MCF-7) [11, 13] | SI IC50 (L-02/BEL-7402) [5] | SI IC50 (L-02/AGS) [4] | other results
1 | – | – | – | – | – | – | – | – | – | 0.03 ± 0.02 µM | – | COc1ccc(/C=C\c2cc(OC)c(OC)c(OC)c2)cc1OP(=O)(O)O [CA-4P, reference compound] | – | – | >4.5 | >30.3 | – | – | SI IC50 (L-02/MGC-803) [1]: >89.0; IC50 [2]: > 100 µM; IC50 [3]: > 100 µM; IC50 [4]: 4.73 ± 0.22 µM; IC50 [5]: 5.45 ± 2.04 µM; IC50 [6]: 0.59 ± 0.22 µM; IC50 [7]: 2.67 ± 0.61 µM; IC50 [8]: > 100 µM; IC50 [9]: 0.12 ± 0.03 µM; IC50 [10]: 14.6 ± 1.36 µM; IC50 [11]: 0.48 ± 0.25 µM
2 | 6.18 ± 0.36 µM | > 100 µM | > 100 µM | 0.05 ± 0.003 µM | 0.75 ± 0.21 µM | 1.51 ± 0.05 µM | > 100 µM | > 100 µM | 16.7 ± 4.77 µM | – | 156 to 158 °C | COc1ccc(/C=C(\C#N)c2cc(OC)c(OC)c(OC)c2)cc1 [Compound 6d, (Z)-3-(4-Methoxyphenyl)-2-(3,4,5-trimethoxyphenyl)acrylonitrile] | 4.15 ± 4.16 µM | 3.07 ± 0.18 µM | >2.7 | – | >5.5 | – | –
3 | 7.21 ± 3.65 µM | 36.62 ± 0.134 µM | > 100 µM | 1.33 ± 0.15 µM | 0.72 ± 0.01 µM | 0.17 ± 0.1 µM | > 100 µM | > 100 µM | 4.37 ± 2.8 µM | – | 156 to 158 °C | COc1cc(/C(C#N)=C/c2ccc(C(C)C)cc2)cc(OC)c1OC [Compound 6f, (Z)-3-(4-Isopropylphenyl)-2-(3,4,5-trimethoxyphenyl)acrylonitrile] | > 100 µM | 5.79 ± 0.48 µM | >588.2 | >1.3 | >138.8 | >75.1 | SI IC50 (L-02/MGC-803) [1]: >13.8; SI IC50 (L-02/A549) ([2]; selectivity index, IC50 (L-02)/IC50 (A549)): >2.7
4 | 0.01 to 7.21 µM | > 100 µM | > 100 µM | 4.38 ± 2.04 µM | 0.65 ± 0.05 µM | 0.34 ± 0.01 µM | > 100 µM | > 100 µM | > 100 µM | < 0.01 µM | 76 to 78 °C | CCc1ccc(/C=C(\C#N)c2cc(OC)c(OC)c(OC)c2)cc1 [Compound 6g, (Z)-3-(4-Ethylphenyl)-2-(3,4,5-trimethoxyphenyl)acrylonitrile] | > 100 µM | 1.19 ± 0.08 µM | >294.1 | – | >153.8 | >22.8 | –
5 | 0.67 ± 0.22 µM | > 100 µM | > 100 µM | 8.01 ± 1.65 µM | 1.82 ± 1.2 µM | 16.6 ± 10.3 µM | > 100 µM | > 100 µM | 15 ± 2 µM | – | 102 to 104 °C | COc1cc(/C(C#N)=C/c2cccs2)cc(OC)c1OC [Compound 7a, (Z)-3-(Thiophen-2-yl)-2-(3,4,5-trimethoxyphenyl)acrylonitrile] | 21.2 ± 10.8 µM | 55.8 ± 10.4 µM | >1.2 | >3.7 | >11.6 | >2.6 | –

Row | Compound | IC50 ([1]; Homo sapiens, MGC-803, 48 h) | IC50 ([2]; Homo sapiens) | IC50 ([3]; Homo sapiens, HepG2) | IC50 ([4]; Homo sapiens) | IC50 ([5]; Homo sapiens) | IC50 ([6]; Homo sapiens, HCT-116) | IC50 ([8]; Homo sapiens) | IC50 ([9]; Homo sapiens) | IC50 ([11]; Homo sapiens, MCF7) | IC50 [1] | melting point | IC50 ([7]; Homo sapiens) | IC50 ([10]; Homo sapiens) | SI IC50 (L-02/HCT116) [6, 12] | SI IC50 (MCF-10A/MCF-7) [11, 13] | SI IC50 (L-02/BEL-7402) [5] | SI IC50 (L-02/AGS) [4] | other results
6 | COc1ccc(/C=C\c2cc(OC)c(OC)c(OC)c2)cc1O [CA-4, (Z)-2-methoxy-5–(3,4,5-trimethoxystyryl) phenol, reference compound] | 0.06 ± 0.02 µM | > 100 µM | > 100 µM | 3.42 ± 0.03 µM | 2.02 ± 0.03 µM | 0.16 µM | > 100 µM | 0.3 µM | 0.22 ± 0.09 µM | – | – | 1.1 ± 0.03 µM | 3.23 ± 1.21 µM | – | – | – | – | SI IC50 (L-02/HCT116) [6]: >6.8; SI IC50 (MCF-10A/MCF-7) [11]: >14.6
7 | (Z)-3-(Naphthalen-1-yl)-2-(3,4,5-trimethoxyphenyl)acrylonitrile [Compound 7c] | – | – | – | – | – | – | – | – | – | 3.45 ± 2.11 µM | – | – | – | – | – | – | – | IC50 [2]: > 100 µM; IC50 [3]: > 100 µM; IC50 [4]: 3.51 ± 0.25 µM; IC50 [5]: 2.53 ± 0.12 µM; IC50 [6]: 4.58 ± 0.42 µM; IC50 [7]: 8.21 ± 0.051 µM; IC50 [8]: > 100 µM; IC50 [9]: > 100 µM; IC50 [10]: 1.03 ± 0.44 µM; IC50 [11]: 2.83 ± 0.35 µM
